Data set [1] concerns Blood. In words: Inhibition of LPS-induced TNFalpha production in human whole blood preincubated for 30 mins followed by LPS addition and measured after overnight incubation by mesoscale assay. Type of data set: functional, tissue-based.
The subject of the next data set is MV4-11. In words: Antiproliferative activity against human MV4-11 cells after 72 hrs by cell titer glo assay. Type of data set: functional, cell-based. Particulars: MV4-11, 72 h. A general note: ATP-based viability assays read luminescence as a measure of living cells.
In the next data set the test system is THP-1. The experiment in a line: Antiproliferative activity against human THP-1 cells after 72 hrs by cell titer glo assay. Particulars: THP-1, 72 h. The format is functional, cell-based.
For data set [2], the system named is Blood. The experiment in a line: Inhibition of LPS-induced MCP1 production in human whole blood preincubated for 30 mins followed by LPS addition and measured after overnight incubation by mesoscale assay. Type of data set: functional, tissue-based.
In another data set the test system is HL-60. The experiment in a line: Antiproliferative activity against human HL-60 cells after 72 hrs by cell titer glo assay. Type of data set: functional, cell-based. Particulars: HL-60, 72 h.
For data set [3], the system named is Blood. The experiment in a line: Inhibition of LPS-induced IL6 production in human whole blood preincubated for 30 mins followed by LPS addition and measured after overnight incubation by mesoscale assay. The format is functional, tissue-based.
Data set [4] concerns the target Bromodomain-containing protein 4 (Homo sapiens, UniProt O60885, Y390A). In words: Displacement of Alexa Fluor 647 labelled ligand from His6-thr-tagged BRD4 BD1 (1 to 477 residues)/BD2 Y390A mutant (unknown origin) after 30 mins by TR-FRET assay. Background: In TR-FRET formats the signal depends on donor and acceptor labels being close together.
The nature of data set [5]: Inhibition of LPS-induced MCP1 production in PBMC (unknown origin). The format is functional, tissue-based.
The nature of data set [6]: Selectivity index, […] for His6-thr-tagged BRD4 BD1 (1 to 477 residues)/BD2 Y390A mutant (unknown origin) to pIC50 for LPS-induced MCP1 production in PBMC (unknown origin).
Data set [7] is described as follows: Lipophilicity, logD of the compound at pH 7.4 by chromatographic method. Type of data set: physicochemical. The settings on record: buffer.
Data set [8] in a line: Permeability of the compound in pH 7.4 phosphate buffer measured after 3 hrs by artificial membrane permeability assay based HPLC analysis. The format is ADME. The settings on record: for Papp at 3 h: PAMPA, pH 7.4, read-out: permeability. (In PAMPA a lipid-coated filter parts donor from acceptor wells.)
Data set [9] addresses Bromodomain-containing protein 4 (Homo sapiens, UniProt O60885, Y97A). In words: Displacement of Alexa Fluor 647 labelled ligand from His6-tagged BRD4 BD2 (1 to 477 residues)/BD1 Y97A mutant (unknown origin) after 30 mins by TR-FRET assay.
Data set [10] concerns the target T1, ATPase family AAA domain-containing protein 2 (Homo sapiens, UniProt Q6PL18).
T1 sequence (Q6PL18 whole entry): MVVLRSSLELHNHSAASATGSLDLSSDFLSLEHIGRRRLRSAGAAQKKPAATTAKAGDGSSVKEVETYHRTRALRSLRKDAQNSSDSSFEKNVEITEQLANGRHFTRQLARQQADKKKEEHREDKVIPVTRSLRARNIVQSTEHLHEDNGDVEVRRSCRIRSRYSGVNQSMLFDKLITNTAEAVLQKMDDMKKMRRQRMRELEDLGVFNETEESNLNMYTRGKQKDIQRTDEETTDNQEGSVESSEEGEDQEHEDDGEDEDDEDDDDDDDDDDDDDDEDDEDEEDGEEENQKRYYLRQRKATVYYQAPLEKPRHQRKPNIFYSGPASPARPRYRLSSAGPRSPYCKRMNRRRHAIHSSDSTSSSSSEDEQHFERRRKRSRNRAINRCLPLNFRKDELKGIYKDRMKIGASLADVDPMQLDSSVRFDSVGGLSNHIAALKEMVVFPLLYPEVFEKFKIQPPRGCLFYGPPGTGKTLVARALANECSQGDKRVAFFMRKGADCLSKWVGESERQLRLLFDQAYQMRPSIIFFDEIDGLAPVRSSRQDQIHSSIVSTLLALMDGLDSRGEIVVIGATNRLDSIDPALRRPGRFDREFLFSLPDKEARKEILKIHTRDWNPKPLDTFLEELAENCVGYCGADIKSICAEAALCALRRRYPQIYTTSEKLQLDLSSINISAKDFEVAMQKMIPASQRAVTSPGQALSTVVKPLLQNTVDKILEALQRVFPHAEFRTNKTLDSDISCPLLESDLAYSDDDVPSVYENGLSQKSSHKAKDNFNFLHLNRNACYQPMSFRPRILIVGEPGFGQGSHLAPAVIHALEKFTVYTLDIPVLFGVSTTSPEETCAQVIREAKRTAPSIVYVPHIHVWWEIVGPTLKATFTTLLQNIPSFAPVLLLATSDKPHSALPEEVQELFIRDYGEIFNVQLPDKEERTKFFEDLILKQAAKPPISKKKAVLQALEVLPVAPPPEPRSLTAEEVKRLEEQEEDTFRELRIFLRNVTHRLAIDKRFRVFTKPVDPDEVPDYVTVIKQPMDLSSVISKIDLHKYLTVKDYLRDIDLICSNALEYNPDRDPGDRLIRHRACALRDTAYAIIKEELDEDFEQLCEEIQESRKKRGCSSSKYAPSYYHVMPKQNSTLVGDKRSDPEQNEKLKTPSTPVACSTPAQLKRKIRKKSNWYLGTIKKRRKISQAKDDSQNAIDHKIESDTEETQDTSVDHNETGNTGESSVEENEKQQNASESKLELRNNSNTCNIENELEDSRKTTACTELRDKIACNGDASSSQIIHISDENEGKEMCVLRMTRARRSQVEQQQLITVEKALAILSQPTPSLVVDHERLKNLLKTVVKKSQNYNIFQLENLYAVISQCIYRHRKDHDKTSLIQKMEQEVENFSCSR
The experiment in a line: Inhibition of ATAD2 (unknown origin) by TR-FRET assay.

In data set [11] the test system is Bromodomain-containing protein 4 (Homo sapiens), O60885 [UNDEFINED MUTATION]. In words: Selectivity index, […] for His6-thr-tagged BRD4 BD1 (1 to 477 residues)/BD2 Y390A mutant (unknown origin) to pIC50 for His6-tagged BRD4 BD2 (1 to 477 residues)/BD1 Y97A mutant (unknown origin).

`COc1cc2c(cc1-c1c(C)noc1C)ncc1[nH]c(=O)n([C@H](C)c3ccccn3)c12`: the IC50 came to 0.38 µM with Blood [1]; 0.127 µM in the data set on MV4-11; 0.134 µM in the data set with THP-1; 0.3 µM in the data set with Blood [2]; 0.195 µM with HL-60; 1.03 µM in the data set with Blood [3].
Consider `Cc1cc2c(-c3ccco3)cnc(N[C@@H]3CCNC[C@H]3C(=O)NC3CCCCC3)c2[nH]c1=O`, for which the IC50 in data set [4] is 0.02 µM; in data set [5], 0.2 µM; in data set [9] it was 12.6 µM. Besides, the “Selectivity Index” value in data set [6] was determined as 10. In addition, in data set [7], the chromatographic logD came to 3.12. Also, the permeability in data set [8] (artificial membrane, pH 7.4, 3 h, 3 h) was found to be 19 nm/s.
Consider `CO[C@@H](C)CNC(=O)[C@@H]1CNCC[C@H]1Nc1nccc2cc(C)c(=O)[nH]c12` (mixture of isomers), for which the IC50 in [10] was over 39.8 µM; in data set [4], 7.94 µM; in [9], 31.6 µM. Besides, the Selectivity Index in [11] was 4. The compound further came in with a chromatographic logD in [7] of 1.08.
In the case of `Cc1cc2cccc(N[C@@H]3CCNC[C@H]3C(=O)NC3CCCCC3)c2[nH]c1=O` (racemic), the concentration for half-maximal inhibition (IC50) in data set [4] is 3.16 µM; in data set [9], 31.6 µM. The Selectivity Index in data set [11] turned out to be 10. Moreover, the chromatographic logD in data set [7] is 2.52. For the same compound, the Papp at 3 h in data set [8] is under 3 nm/s.
With `Cc1cc2c(-c3ccco3)cnc(N[C@@H]3CCNC[C@H]3C(=O)NC3CCCCC3)c2[nH]c1=O` (racemic), the IC50 in data set [4] is 0.0398 µM; in data set [9], 25.1 µM. The logD in data set [7] amounted to 3.14. The Papp at 3 h in [8] was found to be 38 nm/s.
On to `Cc1cc2ccnc(N[C@@H]3CCNC[C@H]3C(=O)NC3CCCCC3)c2[nH]c1=O` (racemic), for which the values for the IC50 in data set [10], in data set [4] and in data set [9] were over 39.8 µM, 0.794 µM and over 50.1 µM, respectively. The same compound registered a Selectivity Index in [11] of over 60. Besides, the chromatographic logD in data set [7] came to 2.03. In [8], the Papp at 3 h was under 3 nm/s.
As to `Cc1cc2c(-c3ccco3)ccc(N[C@@H]3CCNC[C@H]3C(=O)NC3CCCCC3)c2[nH]c1=O` (racemic), the figures for the IC50 in data set [4] and in data set [9] were 0.316 µM and 15.8 µM, respectively. The same compound showed a Selectivity Index in [11] of 50. For the same compound, the chromatographic logD in data set [7] amounted to 3.66. In addition, in [8], the Papp at 3 h was under 10 nm/s.
Turning to `Cc1cc2ccnc(N[C@@H]3CCNC[C@H]3C(=O)NC3CCCC3)c2[nH]c1=O` (relative stereo), the IC50 in [10] was over 39.8 µM; in [4], 2.51 µM; in data set [9] it was 39.8 µM. Moreover, the Selectivity Index in data set [11] worked out at 15. The chromatographic logD in data set [7] was 1.87.
On to `Cc1cc2ccnc(N[C@@H]3CCNC[C@@H]3C(=O)NC3CCCCC3)c2[nH]c1=O` (relative stereo), for which the IC50 in data set [10] was over 39.8 µM; in data set [4], 5.01 µM; in data set [9], over 50.1 µM. In data set [11], the Selectivity Index is over 10. The compound also gave a chromatographic logD in data set [7] of 1.88.
Consider `Cc1cc2ccnc(N[C@@H]3CCNC[C@H]3C(=O)N[C@H](C)C(C)C)c2[nH]c1=O` (relative stereo), for which the values for the IC50 in [10], in data set [4] and in [9] were over 39.8 µM, 5.01 µM and over 50.1 µM, respectively. Moreover, in data set [11], the Selectivity Index was over 10. The chromatographic logD in data set [7] was 1.89.

In general, IC50 refers to the concentration that inhibits the measured activity by half. A lower IC50 goes with higher potency. The chromatographic logD is a lipophilicity value derived from retention on a column. Low values mean a more hydrophilic compound, high ones a more lipophilic compound. Broadly, the logD is lipophilicity at a set pH, counting ionised and neutral species. Read a high logD as a more lipophilic compound.

Source of the values: ChEMBL document CHEMBL4725292 (J Med Chem, 2020).
